Structures can show the parent of a compound that is named as a salt.
What was measured:
NLRP3 [1] = target: T1, NLRP3 (Homo sapiens, UniProt Q96P20); experiment: Human whole blood IL1β release assay; format: cell-based; parameters: Human whole blood in Li-heparin tubes was obtained from healthy donors; from tissue; host or cells: human whole blood from healthy donors, LPS-primed, nigericin-stimulated
Protocol: Human Whole Blood IL1β Release Assay
For systemic delivery, the ability to inhibit NLRP3 when the compounds are present within the bloodstream is of great importance. For this reason, the NLRP3 inhibitory activity of a number of compounds in human whole blood was investigated in accordance with the following protocol.
Human whole blood in Li-heparin tubes was obtained from healthy donors from a volunteer donor panel. • 1. Plate out 80 μl of whole blood containing 1 μg/ml of LPS in 96-well, clear bottom cell culture plate (Corning #3585) • 2. Add 10 μl compound (8 points half-log dilution with 10 μM top dose) or vehicle (DMSO 0.1% FAC) to the appropriate wells • 3. Incubate for 3 hrs at 37° C., 5% CO2 • 4. Add 10 μl Nigericin (Sigma #N7143) (10 μM FAC) to all wells • 5. Incubate for 1 hr at 37° C., 5% CO2 • 6. At the end of the incubation period, spin plates at 300 xg for 5 mins to pellet cells and remove 20 μl of supernatant and add to 96-well v-bottom plates for IL-1β analysis (note: these plates containing the supernatants can be stored at −80° C. to be analysed at a later date) • 7. IL-1β was measured according to the manufacturer protocol (Perkin Elmer-AlphaLisa IL-1 Kit AL220F-5000) • 8. IC50 data is fitted to a non-linear regression equation (log inhibitor vs response-variable slope 4-parameters)

NLRP3 [2] = target: T1, NLRP3; experiment: THP-1 cells pyroptosis assay; format: cell-based; parameters: Seed THP-1 cells (25,000 cells/well) containing 1.0 μg/ml LPS; host or cells: THP-1 cells, LPS-primed, nigericin-stimulated
Outline: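 THP-1 cells (25,000/well) in serum-free RPMI with 1.0 μg/ml LPS, treated with compound (8-point half-log dilution, 10 μM top, 0.1% DMSO), then nigericin 5 μM final. Viability read by resazurin (100 μM final, 1-2 h, 37° C) fluorescence Ex 560/Em 590 nm; IC50 from 4-parameter variable-slope fit.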

[3] = human whole blood, 1 μg/ml LPS, compound 3 hrs, nigericin 10 μM 1 hr, IL-1β AlphaLisa, read-out: HWB IC50
[4] = THP-1 cells, 1.0 μg/ml LPS, compound 3 hrs, nigericin 5 μM 1 hr, resazurin readout, read-out: THP IC50

T1 sequence (Q96P20 whole entry): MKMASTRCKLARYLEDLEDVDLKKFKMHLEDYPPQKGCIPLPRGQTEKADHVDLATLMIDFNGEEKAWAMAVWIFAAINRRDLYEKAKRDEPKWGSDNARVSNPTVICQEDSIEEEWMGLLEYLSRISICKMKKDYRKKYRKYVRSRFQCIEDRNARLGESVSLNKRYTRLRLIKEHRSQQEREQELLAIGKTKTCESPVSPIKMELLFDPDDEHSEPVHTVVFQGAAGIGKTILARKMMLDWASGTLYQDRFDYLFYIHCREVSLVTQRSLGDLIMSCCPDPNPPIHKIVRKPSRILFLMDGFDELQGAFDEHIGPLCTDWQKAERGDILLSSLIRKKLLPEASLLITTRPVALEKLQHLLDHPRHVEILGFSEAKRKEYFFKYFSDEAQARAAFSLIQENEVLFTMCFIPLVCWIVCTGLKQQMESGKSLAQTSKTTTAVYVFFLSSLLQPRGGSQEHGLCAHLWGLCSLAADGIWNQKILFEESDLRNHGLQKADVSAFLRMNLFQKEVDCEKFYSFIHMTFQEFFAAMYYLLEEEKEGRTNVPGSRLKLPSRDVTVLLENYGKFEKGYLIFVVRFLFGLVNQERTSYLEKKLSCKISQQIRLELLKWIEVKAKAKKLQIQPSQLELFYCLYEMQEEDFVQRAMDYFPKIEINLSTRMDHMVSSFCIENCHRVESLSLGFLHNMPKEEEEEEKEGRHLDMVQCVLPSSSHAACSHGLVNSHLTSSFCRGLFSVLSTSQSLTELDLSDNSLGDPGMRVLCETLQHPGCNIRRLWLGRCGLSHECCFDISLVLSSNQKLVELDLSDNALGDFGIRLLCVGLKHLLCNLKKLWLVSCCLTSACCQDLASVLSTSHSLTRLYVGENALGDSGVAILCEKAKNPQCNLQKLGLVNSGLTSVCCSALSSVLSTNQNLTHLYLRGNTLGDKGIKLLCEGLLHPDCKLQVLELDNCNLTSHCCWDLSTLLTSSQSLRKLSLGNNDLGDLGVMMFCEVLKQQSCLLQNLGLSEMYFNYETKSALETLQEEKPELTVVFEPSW

Row | SMILES | IC50 (NLRP3 [1]; [3]) [nM] | IC50 (NLRP3 [2]; [4]) [nM] | IC50 (NLRP3 [1]) [nM] | IC50 (NLRP3 [2]) [nM]
1 | CC(C)c1cccc(C(C)C)c1NC(=O)NS(=O)(=O)c1cc(C(=O)N(C)C(C)C)n(C)n1 [Example 158, 3-(N-((2,6-Diisopropylphenyl)carbamoyl)sulfamoyl)-N-isopropyl-N,1-dimethyl-1H-pyrazole-5-carboxamide] | < 800 | < 640 | – | –
2 | CC(C)N(C)C(=O)c1cc(S(=O)(=O)NC(=O)Nc2c3c(cc4c2CCC4)CCC3)nn1C [Example 164, 3-(N-((1,2,3,5,6,7-Hexahydro-s-indacen-4-yl)carbamoyl)sulfamoyl)-N-isopropyl-N,1-dimethyl-1H-pyrazole-5-carboxamide] | < 3200 | < 160 | – | –
3 | CCN(CC)C(=O)c1cc(S(=O)(=O)NC(=O)Nc2c3c(cc4c2CCC4)CCC3)nn1C [Example 165, N,N-diethyl-3-(N-((1,2,3,5,6,7-Hexahydro-s-indacen-4-yl)carbamoyl)sulfamoyl)-1-methyl-1H-pyrazole-5-carboxamide] | < 1600 | < 160 | – | –
4 | CN(C)Cc1c(S(=O)(=O)NC(=O)Nc2c3c(cc4c2CCC4)CCC3)ncn1C [Example 171, 5-((Dimethylamino)methyl)-N-((1,2,3,5,6,7-hexahydro-s-indacen-4-yl)carbamoyl)-1-methyl-1H-imidazole-4-sulfonamide] | < 1600 | < 640 | – | –
5 | CC(C)c1cc(Cl)cc(C(C)C)c1NC(=O)NS(=O)(=O)c1cc(C(=O)N(C)CCO)n(C)n1 [Example 172, 3-(N-((4-Chloro-2,6-diisopropylphenyl)carbamoyl)sulfamoyl)-N-(2-hydroxyethyl)-N,1-dimethyl-1H-pyrazole-5-carboxamide] | – | – | < 1600 | < 160
6 | COc1cc(-c2ccc3c(c2NC(=O)NS(=O)(=O)c2ccn(C(C)(C)CN(C)C)n2)CCC3)ccn1 [Example 178, 1-(1-(Dimethylamino)-2-methylpropan-2-yl)-N-((5-(2-methoxypyridin-4-yl)-2,3-dihydro-1H-inden-4-yl)carbamoyl)-1H-pyrazole-3-sulfonamide] | < 400 | < 40 | – | –
7 | CN(C)CCn1ccc(S(=O)(=O)NC(=O)Nc2c3c(cc4c2CCC4)CC=C3)n1 [Example 181, 1-(2-(Dimethylamino)ethyl)-N-((1,2,3,7-tetrahydro-s-indacen-4-yl)carbamoyl)-1H-pyrazole-3-sulfonamide, potassium salt] | < 800 | < 160 | – | –
8 | CN(C)CC(C)(C)n1cc(S(=O)(=O)NC(=O)Nc2c3c(cc4c2CCC4)CCC3)cn1 [Example 183, 1-(1-(Dimethylamino)-2-methylpropan-2-yl)-N-((1,2,3,5,6,7-hexahydro-s-indacen-4-yl)carbamoyl)-1H-pyrazole-4-sulfonamide] | < 1600 | < 160 | – | –
9 | CC(C)(C#N)n1ccc(S(=O)(=O)NC(=O)Nc2c(-c3ccnc(OC(F)F)c3)ccc3c2CCO3)n1 [Example 189, 1-(2-Cyanopropan-2-yl)-N-((5-(2-(difluoromethoxy)pyridin-4-yl)-2,3-dihydrobenzofuran-4-yl)carbamoyl)-1H-pyrazole-3-sulfonamide] | < 400 | < 160 | – | –
10 | COc1cc(-c2ccc3c(c2NC(=O)NS(=O)(=O)c2ccn(C(C)(C)C#N)n2)CCO3)ccn1 [Example 190, 1-(2-Cyanopropan-2-yl)-N-((5-(2-methoxypyridin-4-yl)-2,3-dihydrobenzofuran-4-yl)carbamoyl)-1H-pyrazole-3-sulfonamide] | < 400 | < 160 | – | –
11 | CNCC(C)(C)n1ccc(S(=O)(=O)NC(=O)Nc2c(-c3ccnc(OC)c3)ccc3c2CCC3)n1 [Example 191, N-((5-(2-Methoxypyridin-4-yl)-2,3-dihydro-1H-inden-4-yl)carbamoyl)-1-(2-methyl-1-(methylamino)propan-2-yl)-1H-pyrazole-3-sulfonamide, sodium salt] | < 400 | < 40 | – | –
12 | CN(C)CC(C)(C)n1ccc(S(=O)(=O)NC(=O)Nc2c(-c3ccnc(OC4CC4)c3)ccc3c2CCO3)n1 [Example 192, N-((5-(2-Cyclopropoxypyridin-4-yl)-2,3-dihydrobenzofuran-4-yl)carbamoyl)-1-(1-(dimethylamino)-2-methylpropan-2-yl)-1H-pyrazole-3-sulfonamide, sodium salt] | < 400 | < 160 | – | –
13 | COc1cc(-c2ccc3c(c2NC(=O)NS(=O)(=O)c2ccn(C4CCN(C)C4)n2)CCC3)ccn1 (centres unmarked) [Example 193, N-((5-(2-Methoxypyridin-4-yl)-2,3-dihydro-1H-inden-4-yl)carbamoyl)-1-(1-methylpyrrolidin-3-yl)-1H-pyrazole-3-sulfonamide, sodium salt] | < 400 | < 40 | – | –
14 | CN(C)CC(C)(C)n1ccc(S(=O)(=O)NC(=O)Nc2c(-c3ccnc(OC4CC4)c3)ccc3c2CCC3)n1 [Example 194, N-((5-(2-Cyclopropoxypyridin-4-yl)-2,3-dihydro-1H-inden-4-yl)carbamoyl)-1-(1-(dimethylamino)-2-methylpropan-2-yl)-1H-pyrazole-3-sulfonamide, sodium salt] | < 400 | < 40 | – | –
15 | COc1cc(-c2ccc3c(c2NC(=O)NS(=O)(=O)c2ccn(C(C)(C)C#N)n2)CCC3)ccn1 [Example 195, 1-(2-Cyanopropan-2-yl)-N-((5-(2-methoxypyridin-4-yl)-2,3-dihydro-1H-inden-4-yl)carbamoyl)-1H-pyrazole-3-sulfonamide, sodium salt] | < 400 | < 40 | – | –
16 | CN(C)CC(C)(C)n1ccc(S(=O)(=O)NC(=O)Nc2c(-c3ccnc(C#N)c3)ccc3c2CCC3)n1 [Example 196, N-((5-(2-Cyanopyridin-4-yl)-2,3-dihydro-1H-inden-4-yl)carbamoyl)-1-(1-(dimethylamino)-2-methylpropan-2-yl)-1H-pyrazole-3-sulfonamide] | < 400 | < 40 | – | –
17 | CN(C)CC(C)(C)n1ccc(S(=O)(=O)NC(=O)Nc2c(-c3cccnc3)ccc3c2CCC3)n1 [Example 197, 1-(1-(Dimethylamino)-2-methylpropan-2-yl)-N-((5-(pyridin-3-yl)-2,3-dihydro-1H-inden-4-yl)carbamoyl)-1H-pyrazole-3-sulfonamide] | < 400 | < 640 | – | –
18 | C[C@H](CN(C)C)n1ccc(S(=O)(=O)NC(=O)Nc2c3c(cc4c2CCC4)CCC3)n1 [Example 198, (R)-1-(1-(Dimethylamino)propan-2-yl)-N-((1,2,3,5,6,7-hexahydro-s-indacen-4-yl)carbamoyl)-1H-pyrazole-3-sulfonamide] | < 800 | < 640 | – | –
19 | CN(C)CCn1ncc(S(=O)(=O)NC(=O)Nc2c3c(cc4c2CCC4)CCC3)n1 [Example 199, 2-(2-(Dimethylamino)ethyl)-N-((1,2,3,5,6,7-hexahydro-s-indacen-4-yl)carbamoyl)-2H-1,2,3-triazole-4-sulfonamide] | < 1600 | < 640 | – | –
20 | CN(C)CC1(n2ccc(S(=O)(=O)NC(=O)Nc3c4c(cc5c3CCC5)CCC4)n2)CC1 [Example 202, 1-(1-((Dimethylamino)methyl)cyclopropyl)-N-((1,2,3,5,6,7-hexahydro-s-indacen-4-yl)carbamoyl)-1H-pyrazole-3-sulfonamide] | < 400 | < 160 | – | –
21 | CNCC(C)(C)n1ccc(S(=O)(=O)NC(=O)Nc2c3c(cc4c2CCC4)CCC3)n1 [Example 204, N-((1,2,3,5,6,7-Hexahydro-s-indacen-4-yl)carbamoyl)-1-(2-methyl-1-(methylamino)propan-2-yl)-1H-pyrazole-3-sulfonamide, sodium salt] | < 800 | < 160 | – | –
22 | CN1CCC(n2ccc(S(=O)(=O)NC(=O)Nc3c4c(cc5c3CCC5)CCC4)n2)C1 (centres unmarked) [Example 205, N-((1,2,3,5,6,7-Hexahydro-s-indacen-4-yl)carbamoyl)-1-(1-methylpyrrolidin-3-yl)-1H-pyrazole-3-sulfonamide, sodium salt] | < 1600 | < 40 | – | –

From patent US11613542B2, “Sulfonylureas and sulfonylthioureas as NLRP3 inhibitors” (Inflazome Limited, priority 2017, dated 2023)
